Experimental data from patent US12472174B2, “Bupropion dosage forms with reduced food and alcohol dosing effects” (ANTECIP BIOVENTURES II LLC, priority 2022, dated 2025).
Counter-ions that a name gives are not always drawn.

Key:
[1] = tested on: patients with agitation associated with Alzheimer's disease; assay: Phase 2/3 randomized, double-blind, controlled clinical trial in agitation associated with Alzheimer's disease; format: in vivo, human
Procedure: A Phase 2/3 randomized, double-blind, controlled, multicenter, U.S. clinical trial was conducted to evaluate the efficacy and safety of DM/BU in patients with agitation associated with Alzheimer's disease. A total of 366 patients with a diagnosis of probable Alzheimer's disease and clinically meaningful agitation associated with their disease were randomized, initially in a 1:1:1 ratio, to receive DM/BU (dextromethorphan/bupropion, dose escalated from 30 mg/105 mg once daily in the first week, to 30 mg/105 mg twice daily in the second week, to 45 mg/105 mg twice daily thereafter), bupropion (dose escalated from 105 mg once daily in the first week to 105 mg twice daily thereafter), or matching placebo, for 5 weeks. An independent data monitoring committee performed an interim futility analysis and recommended no further randomization to the bupropion arm. Subsequently, patients were randomized in a 1:1 ratio to receive DM/BU or placebo. Total patients randomized were 159, 49, and 158 to the DM/BU, bupropion, and placebo arms, respectively. The mean Cohen-Mansfield Agitation Inventory (CMAI) total scores at baseline were 60.8, 66.1, and 59.3, respectively for the DM/BU, bupropion, and placebo groups. The minimum score on the CMAI is 29, corresponding to the total absence of symptoms, with higher scores corresponding to greater agitation. The primary endpoint of the study was the change from baseline in the CMAI total score at Week 5. P-values were calculated based on least square mean estimates.
Inclusion criteria included male or female […], diagnosis of probable Alzheimer's disease, according to the 2011 NIA-AA criteria, diagnosis of agitation, according to the IPA provisional definition of agitation, MMSE score between 10 and 24, an NPI-AA score ≥4, and community dwelling. Exclusion criterial included dementia of non-Alzheimer's type and current use of a selective serotonin reuptake inhibitor and/or a serotonin and norepinephrine inhibitor (SSRI/SNRI).

[2] = powder; cited from earlier work

SMILES	mean reduction from baseline in CMAI total score ([1]; Week 5, primary endpoint, placebo 11.5, p=0.010)	Diarrhea ([1]; both, human, in vivo, 5 weeks)	Discontinuation due to AEs ([1]; both, human, in vivo, 5 weeks)	Dizziness ([1]; both, human, in vivo, 5 weeks)	Falls ([1]; both, human, in vivo, 5 weeks)	Fatigue ([1]; both, human, in vivo, 5 weeks)	Headache ([1]; both, human, in vivo, 5 weeks)	Insomnia ([1]; both, human, in vivo, 5 weeks)	Serious AEs ([1]; both, human, in vivo, 5 weeks)	Somnolence ([1]; both, human, in vivo, 5 weeks)	Subjects with any TEAE ([1]; both, human, in vivo, 5 weeks)	diarrhea, adverse event rate ([1]; both, human, in vivo, 5 weeks)	dizziness, adverse event rate ([1]; both, human, in vivo, 5 weeks)	rate of discontinuation due to adverse events ([1]; both, human, in vivo, 5 weeks)	serious adverse events, patients ([1]; both, human, in vivo, 5 weeks)	somnolence, adverse event rate ([1]; both, human, in vivo, 5 weeks)	deaths ([1]; one in the placebo arm)	solubility in water [2]
CC(NC(C)(C)C)C(=O)c1cccc(Cl)c1 (stereo not shown) [Bupropion, bupropion]	10.0 points	3 (6.1%) number of subjects (% of subjects)	1 (2.0%) number of subjects (% of subjects)	5 (10.2%) number of subjects (% of subjects)	7 (14.3%) number of subjects (% of subjects)	5 (10.2%) number of subjects (% of subjects)	3 (6.1%) number of subjects (% of subjects)	3 (6.1%) number of subjects (% of subjects)	4 (8.2%) number of subjects (% of subjects)	2 (4.1%) number of subjects (% of subjects)	30 (61.2%) number of subjects (% of subjects)	6.1%	10.2%	2.0%	8.2%	4.1%	one	–
CC(NC(C)(C)C)C(=O)c1cccc(Cl)c1.Cl (racemic) [Bupropion hydrochloride, (±)-1-(3-chlorophenyl)-2-[(1,1-dimethylethyl)amino]-1-propanone hydrochloride]	–	–	–	–	–	–	–	–	–	–	–	–	–	–	–	–	–	highly soluble in water
COc1ccc2c(c1)[C@]13CCCC[C@@H]1[C@H](C2)N(C)CC3 [Dextromethorphan hydrobromide, morphinan, 3-methoxy-17-methyl-, (9α, 13α, 14α), hydrobromide monohydrate]	–	–	–	–	–	–	–	–	–	–	–	–	–	–	–	–	–	sparingly soluble in water
